In US20240182431A1, “NEW CONTRAST AGENT FOR USE IN MAGNETIC RESONANCE IMAGING” (Bayer Aktiengesellschaft, priority 2021, published 2024):

Assay: Partition coefficient (logP butanol/buffer)
Type: physicochemical
[1] = 1-butanol / 50 mM Tris-HCl, pH 7.4, room temperature

| SMILES | Log P (butanol/buffer) [1] | Log P (butanol/buffer) (pH 7.4) |
| --- | --- | --- |
| CCOc1ccc(CCCC(C(=O)O)N2CCN(CC(=O)[O-])CCN(CC(=O)[O-])CCN(CC(=O)[O-])CC2)cc1.[Gd+3] (stereo not drawn) [Example 28, gadolinium 2,2′,2″-{10-[1-carboxy-4-(4-ethoxyphenyl)butyl]-1,4,7,10-tetraazacyclododecane-1,4,7-triyl}triacetate] | −0.71 | – |
| CCOCCOCCOc1ccc(CC(C(=O)O)N2CCN(CC(=O)[O-])CCN(CC(=O)[O-])CCN(CC(=O)[O-])CC2)cc1.[Gd+3] (stereo not drawn) [Example 2, gadolinium 2,2′,2″-{10-[1-carboxy-2-{4-[2-(2-ethoxyethoxy)ethoxy]phenyl}ethyl]-1,4,7,10-tetraazacyclododecane-1,4,7-triyl}triacetate] | −1.63 | – |
| CCOCCOCCOCCOc1ccc(C[C@H](C(=O)O)N2CCN(CC(=O)[O-])CCN(CC(=O)[O-])CCN(CC(=O)[O-])CC2)cc1.[Gd+3] [Example 12, gadolinium 2,2′,2″-{10-[(1R)-1-carboxy-2-(4-{2-[2-(2-ethoxyethoxy)ethoxy]ethoxy}phenyl)ethyl]-1,4,7,10-tetraazacyclododecane-1,4,7-triyl}triacetate] | −1.68 | – |
| CCOCCOCCOc1ccc(CCC[C@@H](C(=O)O)N2CCN([C@@H](CO)C(=O)[O-])CCN([C@H](CO)C(=O)[O-])CCN([C@@H](CO)C(=O)[O-])CC2)cc1.[Gd+3] [Example 35, gadolinium (2S,2′S)-2,2′-{4-[(1S)-1-carboxy-4-{4-[2-(2-ethoxyethoxy)ethoxy]phenyl}butyl]-10-[(1R)-1-carboxylato-2-hydroxyethyl]-1,4,7,10-tetraazacyclododecane-1,7-diyl}bis(3-hydroxypropanoate)] | −1.02 | – |
| O=C([O-])CN1CCN(C(Cc2ccc(OCC(F)(F)C(F)F)cc2)C(=O)O)CCN(CC(=O)[O-])CCN([C@@H](CO)C(=O)[O-])CC1.[Gd+3] (mixture of isomers) [Example 33, gadolinium (2S)-2-[4,10-bis(carboxylatomethyl)-7-{1-carboxy-2-[4-(2,2,3,3-tetrafluoropropoxy)phenyl]ethyl}-1,4,7,10-tetraazacyclododecan-1-yl]-3-hydroxypropanoate] | −0.55 | – |
| CCOCCOCCOc1ccc(CC(C(=O)O)N2CCN(CC(=O)[O-])CCN(CC(=O)[O-])CCN(CC(=O)[O-])CC2)nc1.[Gd+3] (stereo not drawn) [Example 23, gadolinium 2,2′,2″-{10-[1-carboxy-2-{5-[2-(2-ethoxyethoxy)ethoxy]pyridin-2-yl}ethyl]-1,4,7,10-tetraazacyclododecane-1,4,7-triyl}triacetate] | −1.94 | – |
| CCOCCOCCOCCOc1ccc(C[C@@H](C(=O)O)N2CCN(CC(=O)[O-])CCN(CC(=O)[O-])CCN(CC(=O)[O-])CC2)c(OCCOCCOCCOCC)c1.[Gd+3] [Example 40, gadolinium 2,2′,2″-{10-[(1S)-2-(2,4-bis{2-[2-(2-ethoxyethoxy)ethoxy]ethoxy}phenyl)-1-carboxyethyl]-1,4,7,10-tetraazacyclododecane-1,4,7-triyl}triacetate] | −1.43 | – |
| CCOCCOCCOCCOc1ccc(CC(C(=O)O)N2CCN(CC(=O)[O-])CCN(C(CO)C(=O)[O-])CCN(CC(=O)[O-])CC2)cc1.[Gd+3] (stereo not drawn) [Example 42, gadolinium-2-{7-[1-carboxy-2-(4-{2-[2-(2-ethoxyethoxy)ethoxy]ethoxy}phenyl)ethyl]-4,10-bis(carboxylatomethyl)-1,4,7,10-tetraazacyclododecan-1-yl}-3-hydroxypropanoate] | −1.60 | – |
| O=C([O-])CN1CCN(CC(=O)[O-])CCN([C@H](Cc2ccc(OCC(F)(F)F)cc2)C(=O)O)CCN(CC(=O)[O-])CC1.[Gd+3] [Example 47, gadolinium 2,2′,2″-(10-{(1R)-1-carboxy-2-[4-(2,2,2-trifluoroethoxy)phenyl]ethyl}-1,4,7,10-tetraazacyclododecane-1,4,7-triyl)triacetate] | −0.77 | – |
| CCOCCOCCOc1ccc(CCC[C@@H](C(=O)O)N2CCN(CC(=O)[O-])CCN(CC(=O)[O-])CCN(CC(=O)[O-])CC2)cc1.[Gd+3] [Example 26, gadolinium 2,2′,2″-{10-[(1S)-1-carboxy-4-{4-[2-(2-ethoxyethoxy)ethoxy]phenyl}butyl]-1,4,7,10-tetraazacyclododecane-1,4,7-triyl}triacetate] | −1.01 | – |
| CCOCCOCCOc1ccc(C[C@@H](C(=O)O)N2CCN(CC(=O)[O-])CCN(CC(=O)[O-])CCN(CC(=O)[O-])CC2)cc1.[Gd+3] [Example 3, gadolinium 2,2′,2″-{10-[(1S)-1-carboxy-2-{4-[2-(2-ethoxyethoxy)ethoxy]phenyl}ethyl]-1,4,7,10-tetraazacyclododecane-1,4,7-triyl}triacetate] | −1.61 | – |
| O=C([O-])CN1CCN(CC(=O)[O-])CCN(C(Cc2ccc(OCC(F)(F)C(F)F)cc2)C(=O)O)CCN(CC(=O)[O-])CC1.[Gd+3] (stereo not drawn) [Example 46, gadolinium 2,2′,2″-(10-{1-carboxy-2-[4-(2,2,3,3-tetrafluoropropoxy)phenyl]ethyl}-1,4,7,10-tetraazacyclododecane-1,4,7-triyl)triacetate] | −0.57 | – |
| CCOCCOc1ccc(CC(C(=O)O)N2CCN(CC(=O)[O-])CCN(C(CC)C(=O)[O-])CCN(CC(=O)[O-])CC2)cc1.[Gd+3] (single isomer, unassigned) [Example 7, gadolinium 2-[7-{1-carboxy-2-[4-(2-ethoxyethoxy)phenyl]ethyl}-4,10-bis(carboxylatomethyl)-1,4,7,10-tetraazacyclododecan-1-yl]butanoate] | −1.09 | – |
| CCOCCOCCOc1ccc(CC(C(=O)[O-])N2CCN(CC(=O)[O-])CCN(C(CC)C(=O)O)CCN(CC(=O)[O-])CC2)cc1.[Gd+3] (stereo not drawn) [Example 43, gadolinium-2-{4,10-bis(carboxylatomethyl)-7-[1-carboxypropyl]-1,4,7,10-tetraazacyclododecan-1-yl}-3-{4-[2-(2-ethoxyethoxy)ethoxy]phenyl}propanoate] | −1.19 | – |
| CCOCCOCCOc1ccc(CCC[C@H](C(=O)O)N2CCN([C@@H](CO)C(=O)[O-])CCN([C@@H](CO)C(=O)[O-])CCN([C@@H](CO)C(=O)[O-])CC2)cc1.[Gd+3] [Example 18, gadolinium (2S,2′S,2″S)-2,2′,2″-{10-[(1R)-1-carboxy-4-{4-[2-(2-ethoxyethoxy)ethoxy]phenyl}butyl]-1,4,7,10-tetraazacyclododecane-1,4,7-triyl}tris(3-hydroxypropanoate)] | −1.11 | – |
| CCCCOc1cccc(CCC[C@@H](C(=O)O)N2CCN([C@@H](CO)C(=O)[O-])CCN([C@@H](CO)C(=O)[O-])CCN([C@@H](CO)C(=O)[O-])CC2)c1.[Gd+3] [Example 34, gadolinium (2S,2′S,2″S)-2,2′,2″-{10-[(1S)-4-(3-butoxyphenyl)-1-carboxybutyl]-1,4,7,10-tetraazacyclododecane-1,4,7-triyl}tris(3-hydroxypropanoate)] | 0.12 | – |
| CCOCCOCCOc1ccc(CC(C(=O)O)N2CCN(CC(=O)[O-])CCN(C(C)C(=O)[O-])CCN(CC(=O)[O-])CC2)cc1.[Gd+3] (single isomer, unassigned) [Example 5, gadolinium 2-[7-(1-carboxy-2-{4-[2-(2-ethoxyethoxy)ethoxy]phenyl}ethyl)-4,10-bis(carboxylatomethyl)-1,4,7,10-tetraazacyclododecan-1-yl]propanoate] | −1.52 | – |
| CCOCCOCCOc1ccc(CCC[C@H](C(=O)O)N2CCN([C@H](CO)C(=O)[O-])CCN([C@H](CO)C(=O)[O-])CCN([C@H](CO)C(=O)[O-])CC2)cc1.[Gd+3] [Example 19, gadolinium (2R,2R,2″R)-2,2′,2″-{10-[(1R)-1-carboxy-4-{4-[2-(2-ethoxyethoxy)ethoxy]phenyl}butyl]-1,4,7,10-tetraazacyclododecane-1,4,7-triyl}tris(3-hydroxypropanoate)] | −0.95 | – |
| COCC(C(=O)O)N1CCN(CC(=O)[O-])CCN(C(Cc2ccc(OCC(F)(F)C(F)F)cc2)C(=O)[O-])CCN(CC(=O)[O-])CC1.[Gd+3] (stereo not drawn) [Example 45, gadolinium-2-{4,10-bis(carboxylatomethyl)-7-[1-carboxy-2-methoxyethyl]-1,4,7,10-tetraazacyclododecan-1-yl}-3-[4-(2,2,3,3-tetrafluoropropoxy)phenyl]propanoate] | −0.36 | – |
| CCOCCOCCOc1ccc(CC(C(=O)O)N2CCN(CC(=O)[O-])CCN(C(CO)C(=O)[O-])CCN(CC(=O)[O-])CC2)cc1.[Gd+3] (stereo not drawn) [Example 41, gadolinium-2-{7-[1-carboxy-2-{4-[2-(2-ethoxyethoxy)ethoxy]phenyl}ethyl]-4,10-bis(carboxylatomethyl)-1,4,7,10-tetraazacyclododecan-1-yl}-3-hydroxypropanoate] | −1.61 | – |
| CCCOc1ccc(CCC(C(=O)O)N2CCN(CC(=O)[O-])CCN(CC(=O)[O-])CCN(CC(=O)[O-])CC2)cc1.[Gd+3] (stereo not drawn) [Example 24, gadolinium 2,2′,2″-{10-[1-carboxy-3-(4-propoxyphenyl)propyl]-1,4,7,10-tetraazacyclododecane-1,4,7-triyl}triacetate] | −0.71 | – |
| CCOCCOCCOc1ccc(CCC[C@@H](C(=O)O)N2CCN(C(CCO)C(=O)[O-])CCN(C(CCO)C(=O)[O-])CCN(C(CCO)C(=O)[O-])CC2)cc1.[Gd+3] (mixture of isomers) [Example 36, gadolinium-2,2′-{4-[(1S)-1-carboxy-4-{4-[2-(2-ethoxyethoxy)ethoxy]phenyl}butyl]-10-[1-carboxylato-3-hydroxypropyl]-1,4,7,10-tetraazacyclododecane-1,7-diyl}bis(4-hydroxybutanoate)] | – | −1.08 |
| CCOCCOc1ccc(CC(C(=O)O)N2CCN(CC(=O)[O-])CCN(C(CC)C(=O)[O-])CCN(CC(=O)[O-])CC2)cc1.[Gd+3] (single isomer, unassigned) [Example 8, gadolinium 2-[7-{1-carboxy-2-[4-(2-ethoxyethoxy)phenyl]ethyl}-4,10-bis(carboxylatomethyl)-1,4,7,10-tetraazacyclododecan-1-yl]butanoate] | −1.04 | – |
| CCCCOc1ccc(CC(C(=O)O)N2CCN(CC(=O)[O-])CCN(CC(=O)[O-])CCN(CC(=O)[O-])CC2)cc1.[Gd+3] (stereo not drawn) [Example 14, gadolinium 2,2′,2″-{10-[2-(4-butoxyphenyl)-1-carboxyethyl]-1,4,7,10-tetraazacyclododecane-1,4,7-triyl}triacetate] | −0.38 | – |
